Measured values taken from article PMC9499324, “Glycyrrhizic Acid Derivatives Bearing Amino Acid Residues in the Carbohydrate Part as Dengue Virus E Protein Inhibitors: Synthesis and Antiviral Activity” (International Journal of Molecular Sciences, 2022).
Where two headings read alike, the source gives them in different places.

Experiments:
DENV2 = assay: Time-of-addition/compound removal assay with DENV2 in Vero E6 cells; format: cell-based, Dengue virus type 2; settings: for IC50: Dengue virus, Vero C1008, attachment mode, 4 °C, DENV2, Vero E6 cells; for Stage of DENV2 replication affected (attachment, entry, post-entry modes): time-of-addition/removal, Vero E6 cells
Protocol: Figure 5 Time-of-addition and removal assay for analyzing antiviral action of compounds 3 (A), 6 (B), 11 (C), and 21 (D) in Vero E6 cells. In the attachment mode, cells were pre-cooled and incubated with fresh-prepared mixtures of active compounds with DENV2 at 4 °C for 1 h. After the removal of the mixtures, the cells were kept at 37 °C for 96 h (a cycle of viral replication) and then were performed by immunofluorescent assay plus DAPI staining. In entry and post-entry modes, cells were infected with DENV2 and treated with the compounds simultaneously (the entry stage) or 1-h post-infection (post-entry stage). After a 1 h incubation period, the virus/compound mixture was removed; the cell monolayer was washed with PBS and cultured for 96 h and then subjected to immunofluorescence staining and DAPI. Finally, the inhibition percentage of DENV2 infectivity was calculated as follows: 1-(percentage of NS4B positivity in treated cells/percentage of NS4B positivity in mock-treated cells). *** p < 0.001 compared with the other two antiviral action modes.
The time-of-addition assays consisted of three modes including attachment treatment/removal, entry-treatment/removal, and post-entry treatment/removal modes. In the attachment-treatment/removal mode, Vero E6 cells monolayer in 6-well plate was placed at 4 °C for 2 h and incubated with the fresh-prepared mixture of DENV-2 (MOI = 0.005) with the active compound at indicated concentrations for 2 h at 4 °C, and then washed with phosphate-buffered saline (PBS). In the entry-treatment/removal mode, Vero E6 cells were simultaneously treated with the active compound and infected DENV-2 (MOI = 0.005) in 6-well plates, incubated for 1 h at 37 °C, and then washed with PBS. In the post-entry treatment/removal mode, the cells were infected with DENV-2 for 1 h at 37 °C, treated with the active compounds at indicated concentrations for 1 h at 37 °C, respectively, and then washed by PBS. After active compound removal (washout), the cells were incubated at 37 °C for 96 h, and then were analyzed by immunofluorescent and DAPI staining assay for determining the residual DENV-2 infectivity, as described above. The inhibitory activity of the transient treatment by active compounds on attachment, entry, and post-entry stages of DENV replication in vitro was determined based on the residual infectivity.

DENV1 and DENV2 = assay: DENV infectivity inhibition, summary over DENV1 and DENV2 in Vero E6 and A549 cells; format: cell-based, Dengue virus; settings: read-out: IC50 in DENV infectivity (range over assays)
From the text: […] In CPE and infectivity reduction assays, […], and then photographed by microscope for examining the levels of DENV2-induced CPE in infected cells treated with or without GL conjugate. Meanwhile, the cells were further performed using immunofluorescence assay (IFA) with anti-DENV NS4B antibodies (GeneTex, Inc., Hsinchu, Taiwan) and anti-rabbit IgG antibodies conjugated with AF555 (ThermoFisher, Waltham, MA, USA) plus DAPI (4′,6-diamidino-2-phenylindole) nuclear staining. Finally, the DENV-2 infectivity was measured according to the ratio of DENV NS4B-positive cells to DAPI-stained cells in the well of mock-treated or treated cells, as described in [45, 59, 60].

DENV1 = DENV1 infectivity inhibition assay in Vero E6 cells; format: cell-based; settings: Dengue virus, DENV1, Vero C1008, read-out: IC50 in the DENV1 infectivity inhibition assay
Protocol: In the antiviral screening assay, each tested GL conjugate at 10 μM was used to survey the anti-DENV activity in Vero E6 cells using cytopathic effect (CPE) and infectivity reduction assays as described in our prior report. In CPE and infectivity reduction assays, Vero E6 cells were infected by DENV2 at an MOI of 0.005 and simultaneously treated 10 μM of indicated GL conjugate for 96 h, and then photographed by microscope for examining the levels of DENV2-induced CPE in infected cells treated with or without GL conjugate. Meanwhile, the cells were further performed using immunofluorescence assay (IFA) with anti-DENV NS4B antibodies (GeneTex, Inc., Hsinchu, Taiwan) and anti-rabbit IgG antibodies conjugated with AF555 (ThermoFisher, Waltham, MA, USA) plus DAPI (4′,6-diamidino-2-phenylindole) nuclear staining. Finally, the DENV-2 infectivity was measured according to the ratio of DENV NS4B-positive cells to DAPI-stained cells in the well of mock-treated or treated cells, as described in [45, 59, 60].
Supplemental Figure S25. Infectivity inhbition of DENV1 in Vero E6 cells by active GL conjugates. Cells were infected with DENV1 in the presence and absence of Compounds 3, 6, 11, and 21 at the concentrations of 0.1, 1, and 10 μM, respectively. Treated/infected Vero E6 cells were also analyzed using immunofluorescence staining with anti-DENV2 NS4B antibodies.
Residual infectivity was discovered by the ratio of DENV2 NS4B positive cells to total cells stained with DAPI, and relative inhibition activity was determined based on full infectivity with the subtraction of its residual infectivity.
(1 picture or pasted object on this page, not shown here)

[1] = Dengue virus, range over DENV1 and DENV2, Vero E6 and A549 cells

| SMILES | IC50 (DENV2) | Stage of DENV2 replication affected (attachment, entry, post-entry modes) (DENV2) | IC50 (DENV1 and DENV2; [1]) | IC50 (DENV1 and DENV2) | IC50 (DENV1) |
| --- | --- | --- | --- | --- | --- |
| COC(=O)[C@H](NC(=O)[C@H]1O[C@@H](O[C@H]2[C@H](OC3CC[C@@]4(C)C(CC[C@]5(C)C4C(=O)C=C4C6C[C@@](C)(C(=O)O)CC[C@]6(C)CC[C@]45C)C3(C)C)O[C@H](C(=O)N[C@@H](C(=O)OC)C(C)C)[C@@H](O)[C@@H]2O)[C@H](O)[C@@H](O)[C@@H]1O)C(C)C (stereo partly drawn) [Compound 3, 3-O-{2-O-[N-(β-D-Glucopyranosyluronoyl)-D-valinemethyl ester]-N-(β-D-glucopyranosyluronoyl)-D-valinemethyl ester}-(3β, 20β)-11-oxo-30-noroleane-12-ene-30-oic Acid] | 1860 nM | mostly affected the virus binding stage to the cell surface in the attachment mode | 100 to 5980 nM | 120 to 2810 nM | 2810 ± 540 nM |
| CCOC(=O)[C@H](Cc1ccccc1)NC(=O)[C@H]1O[C@@H](O[C@H]2[C@H](OC3CC[C@@]4(C)C(CC[C@]5(C)C4C(=O)C=C4C6C[C@@](C)(C(=O)O)CC[C@]6(C)CC[C@]45C)C3(C)C)O[C@H](C(=O)N[C@@H](Cc3ccccc3)C(=O)OCC)[C@@H](O)[C@@H]2O)[C@H](O)[C@@H](O)[C@@H]1O (stereo partly drawn) [Compound 11, 3-O-{2-O-[N-(β-D-Glucopyranosyluronoyl)-L-phenylalanineethyl ester]-N-(β-D-Glucopyranosyluronoyl)-L-phenylalanineethyl ester}-(3β, 20β)-11-oxo-30-noroleane-12-ene-30-oic Acid] | 180 nM | mostly affected the virus binding stage to the cell surface in the attachment mode | 100 to 5980 nM | 180 to 1560 nM | 1250 ± 167 nM |
